Laboratory results published in the OligoGym collection.
HELM strings list units from the 5' end as sugar, base in round brackets, then linkage (d deoxyribose, r ribose, m 2'-O-methyl, p phosphodiester). Strings are as the collection lists them, not checked against the first reports. ss, as = sense and antisense strand; [s4r] = 4'-thioribose; [fl2r] = 2'-fluoro

Settings: siRNA
Further: test system not given here.

Substance	target mRNA knockdown [%]
RNA1{r(A)p.m(U)p.r(G)p.r(G)p.r(G)p.r(A)p.r(G)p.r(A)p.r(A)p.r(G)p.m(U)p.r(A)p.r(G)p.r(U)p.r(C)p.r(C)p.r(C)p.r(C)p.r(C)p.r(T)p.r(T)}|RNA2{r(G)p.r(G)p.r(G)p.r(G)p.r(G)p.r(A)p.r(C)p.m(U)p.r(A)p.r(C)p.r(U)p.r(U)p.r(C)p.r(U)p.r(C)p.r(C)p.m(C)p.r(A)p.r(U)p.r(T)p.r(T)}$$$RNA1{StrandType:ss}|RNA2{StrandType:as}$	82
RNA1{r(A)p.r(A)p.m(C)p.m(C)p.m(C)p.r(A)p.r(A)p.r(A)p.r(G)p.r(G)p.r(G)p.r(G)p.r(A)p.r(G)p.r(U)p.r(U)p.r(G)p.m(C)p.r(U)p.r(T)p.r(T)}|RNA2{m(A)p.r(G)p.m(C)p.r(A)p.m(A)p.r(C)p.m(U)p.r(C)p.m(C)p.r(C)p.m(C)p.r(U)p.m(U)p.r(U)p.m(G)p.r(G)p.m(G)p.r(U)p.m(U)p.r(T)p.r(T)}$$$RNA1{StrandType:ss}|RNA2{StrandType:as}$	37
RNA1{r(A)p.r(A)p.m(C)p.r(A)p.r(G)p.r(C)p.r(C)p.r(U)p.m(U)p.r(A)p.r(C)p.r(C)p.r(C)p.r(C)p.r(G)p.r(A)p.r(U)p.r(U)p.r(C)p.r(T)p.r(T)}|RNA2{r(G)p.r(A)p.r(A)p.r(U)p.r(C)p.r(G)p.r(G)p.r(G)p.r(G)p.m(U)p.r(A)p.r(A)p.r(G)p.r(G)p.r(C)p.m(U)p.r(G)p.r(U)p.r(U)p.r(T)p.r(T)}$$$RNA1{StrandType:ss}|RNA2{StrandType:as}$	68
RNA1{r(A)p.r(A)p.m(C)p.r(A)p.r(G)p.r(U)p.r(C)p.r(C)p.r(U)p.m(U)p.r(A)p.r(G)p.r(C)p.m(U)p.r(A)p.r(C)p.r(G)p.r(C)p.m(U)p.r(T)p.r(T)}|RNA2{r(A)p.r(G)p.r(C)p.r(G)p.m(U)p.r(A)p.r(G)p.r(C)p.m(U)p.r(A)p.r(A)p.r(G)p.r(G)p.r(A)p.r(C)p.m(U)p.r(G)p.r(U)p.r(U)p.r(T)p.r(T)}$$$RNA1{StrandType:ss}|RNA2{StrandType:as}$	85
RNA1{r(A)p.r(A)p.m(C)p.r(U)p.m(C)p.r(U)p.r(A)p.m(C)p.r(U)p.r(G)p.r(U)p.r(G)p.r(G)p.r(A)p.r(G)p.r(U)p.m(C)p.r(G)p.r(G)p.r(T)p.r(T)}|RNA2{m(C)p.m(C)p.r(G)p.r(A)p.m(C)p.r(U)p.m(C)p.m(C)p.r(A)p.m(C)p.r(A)p.r(G)p.r(U)p.r(A)p.r(G)p.r(A)p.r(G)p.r(U)p.r(U)p.r(T)p.r(T)}$$$RNA1{StrandType:ss}|RNA2{StrandType:as}$	57
RNA1{r(A)p.r(A)p.m(U)p.r(A)p.r(A)p.r(G)p.m(C)p.r(A)p.r(G)p.r(C)p.r(U)p.r(C)p.r(G)p.m(C)p.r(G)p.r(C)p.r(U)p.r(C)p.r(C)p.r(T)p.r(T)}|RNA2{r(G)p.r(G)p.r(A)p.r(G)p.r(C)p.r(G)p.r(C)p.r(G)p.r(A)p.r(G)p.r(C)p.m(U)p.r(G)p.r(C)p.r(U)p.m(U)p.r(A)p.r(U)p.r(U)p.r(T)p.r(T)}$$$RNA1{StrandType:ss}|RNA2{StrandType:as}$	51
RNA1{r(A)p.r(A)p.m(U)p.r(A)p.r(A)p.r(G)p.m(C)p.r(A)p.r(G)p.r(C)p.r(U)p.r(C)p.r(G)p.r(C)p.r(G)p.r(C)p.r(U)p.r(C)p.r(C)p.r(T)p.r(T)}|RNA2{r(G)p.r(G)p.r(A)p.r(G)p.r(C)p.r(G)p.r(C)p.r(G)p.r(A)p.r(G)p.r(C)p.m(U)p.r(G)p.r(C)p.m(U)p.r(U)p.r(A)p.r(U)p.r(U)p.r(T)p.r(T)}$$$RNA1{StrandType:ss}|RNA2{StrandType:as}$	68
RNA1{r(A)p.r(A)p.m(U)p.r(A)p.r(A)p.r(G)p.m(C)p.r(A)p.r(G)p.r(C)p.r(U)p.r(C)p.r(G)p.r(C)p.r(G)p.r(C)p.r(U)p.r(C)p.r(C)p.r(T)p.r(T)}|RNA2{r(G)p.r(G)p.r(A)p.r(G)p.r(C)p.r(G)p.r(C)p.r(G)p.r(A)p.r(G)p.r(C)p.r(U)p.r(G)p.r(C)p.r(U)p.m(U)p.r(A)p.r(U)p.r(U)p.r(T)p.r(T)}$$$RNA1{StrandType:ss}|RNA2{StrandType:as}$	54
RNA1{r(A)p.r(A)p.m(U)p.r(A)p.r(A)p.r(G)p.r(C)p.r(A)p.r(G)p.r(C)p.r(U)p.r(C)p.r(G)p.r(C)p.r(G)p.r(C)p.r(U)p.r(C)p.r(C)p.r(T)p.r(T)}|RNA2{r(G)p.r(G)p.r(A)p.r(G)p.r(C)p.r(G)p.r(C)p.r(G)p.r(A)p.r(G)p.r(C)p.r(U)p.r(G)p.r(C)p.r(U)p.m(U)p.r(A)p.r(U)p.r(U)p.r(T)p.r(T)}$$$RNA1{StrandType:ss}|RNA2{StrandType:as}$	69
RNA1{r(A)p.r(A)p.r(A)p.r(C)p.[fl2r](C)p.[fl2r](A)p.r(G)p.r(G)p.[fl2r](A)p.r(A)p.r(G)p.[fl2r](G)p.r(G)p.r(G)p.r(A)p.r(A)p.r(A)p.r(U)p.r(C)p.r(T)p.r(T)}|RNA2{r(G)p.r(A)p.r(U)p.r(U)p.r(U)p.r(C)p.r(C)p.r(C)p.r(C)p.r(U)p.r(U)p.r(C)p.r(C)p.[fl2r](U)p.[fl2r](G)p.r(G)p.r(U)p.r(U)p.r(U)p.r(T)p.r(T)}$$$RNA1{StrandType:ss}|RNA2{StrandType:as}$	61
RNA1{r(A)p.r(A)p.r(A)p.r(C)p.[fl2r](C)p.[fl2r](A)p.r(G)p.r(G)p.r(A)p.r(A)p.r(G)p.r(G)p.r(G)p.r(G)p.r(A)p.r(A)p.r(A)p.r(U)p.r(C)p.r(T)p.r(T)}|RNA2{r(G)p.r(A)p.r(U)p.r(U)p.r(U)p.r(C)p.r(C)p.r(C)p.r(C)p.r(U)p.r(U)p.r(C)p.r(C)p.r(U)p.r(G)p.r(G)p.r(U)p.r(U)p.r(U)p.r(T)p.r(T)}$$$RNA1{StrandType:ss}|RNA2{StrandType:as}$	64
RNA1{r(A)p.r(A)p.r(A)p.r(C)p.m(C)p.r(U)p.m(C)p.r(A)p.r(G)p.r(C)p.r(C)p.r(C)p.m(U)p.r(A)p.r(A)p.r(C)p.r(G)p.r(G)p.r(U)p.r(T)p.r(T)}|RNA2{r(A)p.r(C)p.r(C)p.r(G)p.r(U)p.m(U)p.r(A)p.r(G)p.r(G)p.r(G)p.r(C)p.m(U)p.r(G)p.r(A)p.r(G)p.r(G)p.r(U)p.r(U)p.r(U)p.r(T)p.r(T)}$$$RNA1{StrandType:ss}|RNA2{StrandType:as}$	79
RNA1{r(A)p.r(A)p.r(A)p.r(C)p.r(A)p.r(U)p.r(G)p.r(C)p.r(A)p.r(G)p.r(A)p.r(A)p.r(A)p.r(A)p.r(U)p.r(G)p.r(C)p.r(U)p.r(G)p.r(T)p.r(T)}|RNA2{[s4r](C)p.[s4r](A)p.r(G)p.r(C)p.r(A)p.r(U)p.r(U)p.r(U)p.r(U)p.r(C)p.r(U)p.r(G)p.r(C)p.r(A)p.r(U)p.r(G)p.r(U)p.[s4r](U)p.[s4r](U)p.r(T)p.r(T)}$$$RNA1{StrandType:ss}|RNA2{StrandType:as}$	42.5
RNA1{r(A)p.r(A)p.r(A)p.r(C)p.r(A)p.r(U)p.r(G)p.r(C)p.r(A)p.r(G)p.r(A)p.r(A)p.r(A)p.r(A)p.r(U)p.r(G)p.r(C)p.r(U)p.r(G)p.r(T)p.r(T)}|RNA2{r(C)p.r(A)p.r(G)p.r(C)p.r(A)p.r(U)p.r(U)p.r(U)p.r(U)p.r(C)p.r(U)p.r(G)p.r(C)p.r(A)p.r(U)p.[s4r](G)p.[s4r](U)p.[s4r](U)p.[s4r](U)p.r(T)p.r(T)}$$$RNA1{StrandType:ss}|RNA2{StrandType:as}$	52.7
